Experimental data published in patent publication US9045650B2, “Polymer with salt groups and antifouling coating composition comprising said polymer” (AKZO NOBEL COATINGS INTERNATIONAL B.V., priority 2008, dated 2015).

Assay: Salt formation of monomeric salts analysed by spectroscopic methods (IR, 1H NMR) and observation on mixing
Assay type: physicochemical
Details: solid sample, ATR
Method: The monomeric salt was analysed using infra-red (IR) spectroscopy (solid sample analysis using Avatar 360 infra-red spectrometer with Golden Gate diamond ATR attachment).
In an effort to further illustrate the relationship between acid/base pKa and the stability of the resulting polymer, a series of monomeric salts was prepared and analysed by spectroscopic methods.
Each of the monomeric salts were prepared by mixing the constituent acid/base starting materials in methanol at a concentration of 1.968 M. Following the addition of the acid/base starting materials, the mixture was stirred at room temperature for 24 h. The monomeric salt was then isolated by evaporation of the solvent.
^1H NMR spectroscopy was carried out on a CDCl3 solution of the monomeric salt (0.0827 M). Peaks associated with resonances for both CH2 groups present in the DMAEMA moiety were seen to shift downfield in the spectrum of this sample when compared to the reference spectrum of the DMAEMA starting material (CH2—CH2—NMe2 δ 4.25 shifted to δ 4.6 and CH2—CH2—NMe2 δ 2.6 shifted to δ 3.5). […] This is attributed to the change in the chemical environment of the CH2 resonances as a result of the complete protonation of the neighbouring NMe2 moiety.

Row | salt formation by IR spectroscopy | Structure (SMILES)
1 | incomplete salt formation | C=C(C)C(=O)NCCCN(C)C.CCCCCCCCCCCCCCCC(=O)O [Comparative Example A (monomeric salt)]
2 | incomplete salt formation | C=C(C)C(=O)NCCCN(C)C.CCCCCC(=O)O [Comparative Example C]
